From patent publication US6372774B1, “Derivatives of N-phenylpyrazoles” (Rhone-Poulenc Agriculture Ltd., priority 1985, dated 2002)

Tests used:
Assay type in all cases: in vivo
[1] = test system: Spodoptera littoralis (Egyptian Cotton Worm); assay: Test 2: leaf disc spray test, Spodoptera littoralis larvae; settings: foliar, application of 500 ppm, 2nd instar larvae on French bean leaf discs, sprayed
From the text: One or more of the dilutions of the compounds to be tested were made in 50% aqueous acetone.
Test species: Spodoptera littoralis (Egyptian Cotton Worm)
French bean leaf discs were set in agar in petri dishes and infected with 5 2nd instar larvae. Four replicate dishes were assigned to each treatment and were sprayed under a Potter Tower with the appropriate test dilution. After 2 days, live larvae were transferred to similar dishes containing untreated leaves set in agar. Two or three days later, the dishes were removed from the constant temperature (25° C.) room in which they had been held and the mean percentage mortalities of larvae were determined.

[2] = test system: Plutella xylostella (Diamond-back Moth); assay: whole plant or invertebrate; settings: foliar, read-out: Plutella % m 500 ppm
Procedure, shortened: (§1)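 Compounds were diluted in 50% aqueous acetone and sprayed in a Potter Tower onto turnip leaf discs in agar, each infested with 10 larvae (2nd instar Plutella, 3rd instar Phaedon), with four replicates per treatment. Mean percentage larval mortality was scored 4–5 days later at 25 °C.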

Periplaneta americana = assay: Test 5: injection into cockroaches; settings: dose of 5 micrograms/g insect body weight, injected in acetone; five days after treatment
Protocol: 0.2 microliters of an acetone solution of the compound was injected through the soft cuticle between the leg and thorax of ten insects, to give a dose rate of 5 micrograms per g of insect body weight. Ten cockroaches were similarity injected with 0.2 microliters of acetone alone to serve as controls. After treatment the insects were held in plastic boxes with appropriate food. Five days after treatment the numbers of dead and alive insects were counted and percentage mortalities calculated.

[3] = test system: Phaedon cochleariae (Mustard Beetle); assay: Test 3 a): leaf disc spray test, Phaedon cochleariae larvae; settings: Phaedon cochleariae, foliar, read-out: Phaedon % m 10 ppm
Procedure, shortened: as §1

SMILES	mortality at 500 ppm [1] [%]	mortality of Periplaneta americana (Periplaneta americana) [%]	further results
Nc1c([N+](=O)[O-])c(Br)nn1-c1c(Cl)cc(C(F)(F)F)cc1Cl [Compound 105, 5-Amino-3-bromo-1-(2,6-dichloro-4-trifluoromethylphenyl)-4-nitropyrazole]	≥ 70		
Nc1c([N+](=O)[O-])c(Cl)nn1-c1c(Cl)cc(C(F)(F)F)cc1Cl [Compound 106, 5-Amino-3-chloro-1-(2,6-dichloro-4-trifluoromethylphenyl)-4-nitropyrazole]	≥ 70		
N#Cc1nn(-c2c(Cl)cc(C(F)(F)F)cc2Cl)c(N)c1[N+](=O)[O-] [Compound 107, 5-Amino-3-cyano-1-(2,6-dichloro-4-trifluoromethylphenyl)-4-nitropyrazole]	≥ 70		
N#Cc1nn(-c2c(Cl)cc(C(F)(F)F)cc2Cl)c(N)c1C#N [Compound 110, 5-Amino-1-(2,6-dichloro-4-trifluoromethylphenyl)-3,4-dicyanopyrazole]		100	pest or weed control at 500 ppm [2]: 89%; pest or weed control at 10 ppm [3]: 100%
N#Cc1nn(-c2c(Cl)cc(C(F)(F)F)cc2Cl)c(NC(=O)C2CC2)c1C#N [Compound 122, 5-Cyclopropylcarbonamido-1-(2,6-dichloro-4-trifluoromethylphenyl)-3,4-dicyanopyrazole]		100	
N#Cc1nn(-c2ccc(C(F)(F)F)cc2Cl)c(N)c1C#N [Compound 125, 5-Amino-1-(2-chloro-4-trifluoromethylphenyl)-3,4-dicyanopyrazole]		100	
